{"source": "patent US20130115618A1", "about": "“PHOSPHOLIPID PROFILING AND CANCER” (KATHOLIEKE UNIVERSITEIT LEUVEN, priority 2010, published 2013)", "assay_type_in_all_cases": "cell-based", "key": {"LNCaP cells [1]": {"tested_on": "LNCaP cells", "assay": "Analysis of intact phospholipid species by ESI-MS/MS", "conditions": "soraphen 100 nM, 72 hr, versus vehicle", "procedure": "To prepare lipid extracts for ESI-MS/MS analysis, the tissue or cells were homogenized in 1.6 ml of 0.1 N HCl:CH3OH 1:1 (v/v). CHCl3 (0.8 ml) and 200 μg/ml of the anti-oxidant 2,6-di-tert-butyl-4-methylphenol (Sigma) were added (Milne et al., 2006). After addition of the lipid standards, the organic fractions were collected by centrifugation at 200 g for 5 min. Samples were evaporated and reconstituted in CH3OH:CHCl3:NH4OH (90:10:1.25, v/v/v) and the lipids were analyzed by electrospray ionization tandem mass spectrometry (ESI-MS/MS) on a hybrid quadrupole linear ion trap mass spectrometer (4000 QTRAP system; Applied Biosystems, Foster City, Calif.) equipped with a robotic nanoflow/ion source (Advion Biosciences). The system was operated in the MRM mode for quantification of individual species. Data were expressed as fold change relative to the control samples (untreated cells or matched normal tissue) and were presented as heatmaps using the Heatmap Builder software (Clifton Watt, Stanford University, USA)."}, "[2]": {"tested_on": "CD36-positive cells (COS-7 transfected with pCD36)", "assay": "CD36-binding assay", "procedure": "LNCaP cells were cultured in the presence or absence of soraphen and/or palmitic acid for 72 hr. The cells were exposed to H2O2 (300 μM) for 30 min. Cells were trypsinized and labeled with Cell Tracker Dye Orange CMRA (C34551). The labeled LNCaP cells (1.5×10^5) were subsequently layered over a monolayer of COS-7 cells, which were cultured on glass coverslips and transfected with a CD36-encoding construct (pCD36) or the corresponding empty vector (pEF-BOS) (both kindly provided by R. Thorne, University of Newcastle, Australia). Cells were co-cultured in 1 ml of RPMI medium for 1 hr at 37° C. After extensive washing, the cultures were fixed and imaged. The fluorescence signal of the CellTracker Dye was measured using Adobe Photoshop software (San Jose, Calif.)."}, "LNCaP cells [3]": {"tested_on": "LNCaP cells", "assay": "Doxorubicin accumulation (fluorescence microscopy and fluorimetry)", "conditions": "soraphen 100 nM 72 hr, doxorubicin 10 μM 30 min", "procedure": "To visualize the intracellular doxorubicin accumulation, doxorubicin was added at a final concentration of 10 μM. After 30 min, the cells were analyzed using a fluorescence microscope (515 nm longpass emission filter) and the LIDA software (Leica Microsystems GmbH).\nTo measure doxorubicin accumulation fluorimetrically, cells were exposed to 10 μM of doxorubicin for 30 min, washed in PBS, lysed in 0.3 M HCl in 50% ethanol (v:v), and centrifuged at 700 g for 5 min. The fluorescence of doxorubicin was measured at an excitation wavelength of 490 nm and an emission wavelength of 580 nm. Where indicated, media were supplemented with palmitic acid."}, "[4]": {"tested_on": "fatty acid synthesis in LNCaP cells", "assay": "2-14C-acetate incorporation assay and TLC analysis", "conditions": "soraphen 24 hours, 2-14C-acetate last 4 hours", "procedure": "LNCaP cells were treated with soraphen or vehicle (ethanol) for 24 hours. The last 4 hours, 2-^14C-labeled acetate (57 mCi/mmol; 2 μCi/dish; Amersham International, Aylesbury, UK) was added to the culture medium. Lipids were extracted according to a modified Bligh-Dyer method as previously described (De Schrijver et al., 2003). To analyze the incorporation of 2-^14C-acetate into different lipid classes, TLC analysis was performed and the lipids were exposed to a PhosphorImager screen for quantification (Molecular Dynamics, Sunnyvale, Calif.), as previously described (De Schrijver et al., 2003)."}, "LNCaP cells [5]": {"tested_on": "LNCaP cells", "assay": "Cell death assay (trypan blue dye exclusion)", "excerpt": "At the indicated time after exposure to soraphen and/or other compounds, the adherent and floating cells were collected by trypsinization and centrifugation and both cell populations were combined."}, "LNCaP cells [6]": {"tested_on": "LNCaP cells", "assay": "Lipid peroxidation product assay", "procedure": "Equal amounts of cells were scraped in ice-cold PBS, kept on ice for 15 min, and then sonicated (10 bursts). After centrifugation at 3,000 g for 10 min, the supernatants were analyzed using a lipid peroxidation assay kit (Oxford Biomedical Research, Oxford, Mich.) that quantifies the amount of malondialdehydes and 4-hydroxyalkenals, which are generated from fatty acid peroxide decomposition."}, "LNCaP cells [7]": {"tested_on": "LNCaP cells", "assay": "Doxorubicin flip-flop rate (NBD-PE quenching)", "conditions": "soraphen 100 nM 72 hr, doxorubicin 10 μM, similar with verapamil 100 μM", "procedure": "To measure the flip-flop rate of doxorubicin, cells were treated with soraphen or vehicle for 72 hr. During the last 24 hr of treatment, 10 μM of NBD-phosphatidylethanolamine (NBD-PE; Invitrogen) was added. Verapamil was added at a concentration of 100 μM 1 hr prior to harvesting the cells by trypsinization. The doxorubicin flip-flop rate across the plasma membrane was measured as the reduction in fluorescence of NBD due to quenching of NBD-PE by doxorubicin (Regev et al., 2005) (See Supplemental Methods for details)."}}, "data": [{"smiles": "CO[C@H]1CCCC[C@@H](c2ccccc2)OC(=O)[C@@H](C)[C@@]2(O)O[C@H]([C@@H](C)[C@H](O)[C@H]2OC)[C@@H](C)/C=C/[C@H]1OC", "note": "[soraphen, Soraphen A]", "values": [{"measurement": "decrease of PC species with one degree of unsaturation", "setting": "LNCaP cells [1]", "value": "up to four-fold"}, {"measurement": "effect on PC species with two unsaturations", "setting": "LNCaP cells [1]", "value": "ambiguous or minor net effect"}, {"measurement": "increase of PC species with more unsaturations (>three)", "setting": "LNCaP cells [1]", "value": "up to eight-fold"}, {"measurement": "number of CD36-bound LNCaP cells", "setting": "[2]; soraphen 100 nM 72 hr followed by 300 μM H2O2 for 30 min", "value": "substantially increased"}, {"measurement": "intracellular accumulation of doxorubicin", "setting": "LNCaP cells [3]", "value": "significant increase"}, {"measurement": "inhibition of fatty acid synthesis / de novo lipogenesis by 2-14C-acetate incorporation", "setting": "[4]", "value": "Inhibition of fatty acid synthesis, and as such de novo lipogenesis was confirmed"}, {"measurement": "cell death in response to H2O2", "setting": "LNCaP cells [5]; soraphen 100 nM 72 hr, 300 μM H2O2 last 24 hr", "value": "markedly increased"}, {"measurement": "cell death", "setting": "LNCaP cells [5]; soraphen alone 100 nM 72 hr", "value": "up to 20%"}, {"measurement": "levels of lipid peroxidation products", "setting": "LNCaP cells [6]; soraphen 100 nM, 72 hr", "value": "significantly increased"}, {"measurement": "increase in the flip-flop rate of doxorubicin", "setting": "LNCaP cells [7]", "value": "six-fold"}]}, {"smiles": "CCCCCCCCCCCCCCCC(=O)O", "note": "[palmitic acid]", "values": [{"measurement": "effect on soraphen-induced increase of CD36-bound LNCaP cells", "setting": "[2]; soraphen 100 nM 72 hr, 300 μM H2O2 30 min, exogenous palmitic acid 75 μM", "value": "counteracted these effects"}, {"measurement": "effect on soraphen-induced doxorubicin accumulation", "setting": "LNCaP cells [3]; palmitic acid 75 μM", "value": "counteracted the effects of soraphen"}, {"measurement": "effect on soraphen-sensitized H2O2-induced cell death (rescue)", "setting": "LNCaP cells [5]; soraphen 100 nM 72 hr, 300 μM H2O2 last 24 hr, fatty acid supplement 75 μM", "value": "counteracted"}, {"measurement": "effect on soraphen/doxorubicin-induced cell death", "setting": "LNCaP cells [5]; soraphen 100 nM, doxorubicin 4 μM, palmitic acid 75 μM", "value": "largely rescued the cells from death"}, {"measurement": "effect on soraphen/H2O2-induced increase in lipid peroxidation products", "setting": "LNCaP cells [6]; soraphen 100 nM 72 hr, 200 μM H2O2 last 2 hr, exogenous palmitic acid 75 μM", "value": "largely reversed these changes"}]}, {"smiles": "COc1cccc2c1C(=O)c1c(O)c3c(c(O)c1C2=O)C[C@@](O)(C(=O)CO)C[C@@H]3O[C@H]1C[C@H](N)[C@H](O)[C@H](C)O1", "note": "[doxorubicin]", "values": [{"measurement": "cell death", "setting": "LNCaP cells [5]; standard culture, doxorubicin 4 μM last 24 hr", "value": 8, "unit": "%"}]}]}
